Assays:
[1] = tested on: MCF-7; test: MTT anti-proliferative assay, MCF-7; assay type: cell-based, human; settings: Homo sapiens, MCF7
[2] = tested on: IL-6R; test: IL-6R level in HepG-2 cells; assay type: cell-based, human
Protocol: (§1) All synthesized compounds were tested at their cytotoxic concentrations in HepG-2 cells for analysis of gene expression levels of apoptotic markers caspase-3, caspase-9, TNF-α, and IL-6 proteins, and only two active compounds were tested for BAX and Bcl-2 proteins.
(§2) through Flow cytometric analysis.
(§3) Pellets were collected again and incubated with
(§4) Total RNA from vehicle-treated
(§5) (Thermo Scientific, USA).
(§6) All experiments were performed in […]

[3] = target: VEGFR-2 (Homo sapiens, UniProt P35968); test: In vitro VEGFR-2 inhibitory assay (ELISA kit); settings: VEGFR-2 kinase
VEGFR-2, sequence (P35968 20-1356): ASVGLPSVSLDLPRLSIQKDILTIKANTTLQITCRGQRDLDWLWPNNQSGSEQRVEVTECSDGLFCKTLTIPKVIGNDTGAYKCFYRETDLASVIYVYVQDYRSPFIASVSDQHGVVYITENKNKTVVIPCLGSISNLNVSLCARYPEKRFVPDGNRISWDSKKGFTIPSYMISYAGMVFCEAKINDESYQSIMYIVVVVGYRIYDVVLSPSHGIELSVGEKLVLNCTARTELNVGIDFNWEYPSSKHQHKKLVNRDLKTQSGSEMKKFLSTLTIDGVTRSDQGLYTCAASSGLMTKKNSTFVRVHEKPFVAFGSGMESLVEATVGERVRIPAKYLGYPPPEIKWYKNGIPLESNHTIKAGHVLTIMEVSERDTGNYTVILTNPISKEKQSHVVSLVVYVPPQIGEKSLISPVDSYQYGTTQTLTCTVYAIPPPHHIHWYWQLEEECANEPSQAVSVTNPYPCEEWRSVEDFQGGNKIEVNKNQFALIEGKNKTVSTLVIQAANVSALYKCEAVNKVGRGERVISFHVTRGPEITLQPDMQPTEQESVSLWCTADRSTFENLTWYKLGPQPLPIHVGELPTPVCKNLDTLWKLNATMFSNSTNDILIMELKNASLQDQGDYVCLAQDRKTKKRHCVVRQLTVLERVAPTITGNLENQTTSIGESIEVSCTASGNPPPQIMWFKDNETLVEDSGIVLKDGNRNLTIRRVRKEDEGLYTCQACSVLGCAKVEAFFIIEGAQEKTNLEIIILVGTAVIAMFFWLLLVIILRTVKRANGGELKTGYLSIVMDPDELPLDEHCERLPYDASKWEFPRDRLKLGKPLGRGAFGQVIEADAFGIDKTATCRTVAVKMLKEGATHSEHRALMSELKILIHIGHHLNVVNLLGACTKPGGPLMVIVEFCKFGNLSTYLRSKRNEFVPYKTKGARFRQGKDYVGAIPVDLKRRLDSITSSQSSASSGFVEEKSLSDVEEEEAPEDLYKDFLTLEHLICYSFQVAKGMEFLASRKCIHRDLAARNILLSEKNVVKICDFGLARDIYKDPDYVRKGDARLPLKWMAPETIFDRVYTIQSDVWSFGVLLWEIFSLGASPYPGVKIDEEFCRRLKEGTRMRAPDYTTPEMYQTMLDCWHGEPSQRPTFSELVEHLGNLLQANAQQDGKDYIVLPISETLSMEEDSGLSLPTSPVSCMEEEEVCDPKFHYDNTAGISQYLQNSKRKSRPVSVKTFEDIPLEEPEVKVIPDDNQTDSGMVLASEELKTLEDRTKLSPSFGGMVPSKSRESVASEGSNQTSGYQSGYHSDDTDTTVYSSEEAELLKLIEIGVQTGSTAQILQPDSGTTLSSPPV

[4] = tested on: K-562; test: MTT anti-proliferative assay, K-562; assay type: cell-based, human; settings: Homo sapiens, K562
[5] = tested on: caspase-3; test: Caspase-3 expression level in HepG-2 cells; assay type: cell-based, human; settings: for Caspase-3 ± SE: HepG-2, at IC50 concentrations, control 0.460
Protocol: as §1, §2, §3, §4, §5, §6

[6] = tested on: TNF-alpha; test: TNF-alpha level in HepG-2 cells; assay type: cell-based, human; settings: control 43.48
Protocol: as §1, §2, §3, §4, §5, §6

[7] = target: EGFR (Homo sapiens, UniProt P00533); test: EGFR kinase inhibition assay (ELISA kit)
EGFR, sequence (P00533 25-1210): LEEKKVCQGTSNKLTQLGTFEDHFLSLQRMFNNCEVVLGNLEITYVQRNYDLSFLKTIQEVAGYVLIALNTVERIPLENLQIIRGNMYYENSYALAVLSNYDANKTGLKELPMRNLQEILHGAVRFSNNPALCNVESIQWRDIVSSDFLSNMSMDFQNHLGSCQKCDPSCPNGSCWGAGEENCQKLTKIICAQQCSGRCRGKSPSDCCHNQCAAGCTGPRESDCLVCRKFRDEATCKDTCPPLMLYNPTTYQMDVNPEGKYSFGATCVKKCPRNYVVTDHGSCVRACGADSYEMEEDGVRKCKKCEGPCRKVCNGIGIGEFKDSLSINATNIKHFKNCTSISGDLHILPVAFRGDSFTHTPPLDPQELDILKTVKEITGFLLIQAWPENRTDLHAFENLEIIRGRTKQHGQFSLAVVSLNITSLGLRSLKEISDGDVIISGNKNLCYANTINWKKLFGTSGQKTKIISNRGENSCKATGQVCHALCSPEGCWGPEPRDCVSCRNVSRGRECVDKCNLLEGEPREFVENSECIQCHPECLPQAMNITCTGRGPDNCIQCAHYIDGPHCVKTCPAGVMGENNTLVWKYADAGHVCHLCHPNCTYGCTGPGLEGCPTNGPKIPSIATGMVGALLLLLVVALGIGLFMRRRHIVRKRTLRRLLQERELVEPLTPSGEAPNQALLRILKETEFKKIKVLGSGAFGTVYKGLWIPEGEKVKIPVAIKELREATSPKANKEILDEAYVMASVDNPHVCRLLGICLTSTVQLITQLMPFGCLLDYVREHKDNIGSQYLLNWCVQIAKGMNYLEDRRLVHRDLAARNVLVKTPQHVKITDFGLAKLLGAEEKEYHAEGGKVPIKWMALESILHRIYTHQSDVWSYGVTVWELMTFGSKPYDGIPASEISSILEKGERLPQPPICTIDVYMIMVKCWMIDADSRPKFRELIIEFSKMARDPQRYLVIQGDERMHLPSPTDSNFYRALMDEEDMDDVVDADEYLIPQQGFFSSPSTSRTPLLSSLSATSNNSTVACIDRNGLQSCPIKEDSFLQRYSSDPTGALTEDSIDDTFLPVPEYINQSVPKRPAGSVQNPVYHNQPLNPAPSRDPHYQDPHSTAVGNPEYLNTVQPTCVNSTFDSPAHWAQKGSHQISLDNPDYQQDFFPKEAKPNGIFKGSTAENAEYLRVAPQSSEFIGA

[8] = tested on: caspase-9; test: Caspase-9 expression level in HepG-2 cells; assay type: cell-based, human; settings: for Caspase-9 ± SE: HepG-2, at IC50 concentrations, control 11.01
Protocol: as §1, §2, §3, §4, §5, §6

[9] = tested on: HepG-2; test: MTT anti-proliferative assay, HepG-2; assay type: cell-based, human; settings: Homo sapiens, HepG2

O=C(Cn1cnc2cc(Cl)ccc2c1=O)Nc1ccccc1Cl [8b, 2-(7-Chloro-4-oxoquinazolin-3(4H)-yl)-N-(2-chlorophenyl)acetamide]
viability at 0.195 µmol ([1]; MCF-7, 0.195 umol): 47.8%
cytotoxicity at 0.195 µmol ([1]; MCF-7, 0.195 umol, read-out: Toxicity %): 52.2%
viability at 0.391 µmol ([1]; MCF-7, 0.391 umol): 28.6%
cytotoxicity at 0.391 µmol ([1]; MCF-7, 0.391 umol, read-out: Toxicity %): 71.4%
viability at 0.781 µmol ([1]; MCF-7, 0.781 umol): 14.1%
cytotoxicity at 0.781 µmol ([1]; MCF-7, 0.781 umol, read-out: Toxicity %): 85.9%
viability at 1.563 µmol ([1]; MCF-7, 1.563 umol): 12%
cytotoxicity at 1.563 µmol ([1]; MCF-7, 1.563 umol, read-out: Toxicity %): 88%
viability at 3.125 µmol ([1]; MCF-7, 3.125 umol): 9.81%
cytotoxicity at 3.125 µmol ([1]; MCF-7, 3.125 umol, read-out: Toxicity %): 90.2%
viability at 6.25 µmol ([1]; MCF-7, 6.25 umol): 8.27%
cytotoxicity at 6.25 µmol ([1]; MCF-7, 6.25 umol, read-out: Toxicity %): 91.7%
viability at 12.5 µmol ([1]; MCF-7, 12.5 umol): 6.86%
cytotoxicity at 12.5 µmol ([1]; MCF-7, 12.5 umol, read-out: Toxicity %): 93.1%
viability at 25 µmol ([1]; MCF-7, 25 umol): 6.68%
cytotoxicity at 25 µmol ([1]; MCF-7, 25 umol, read-out: Toxicity %): 93.3%
IC50 ([1]; MTT, MCF-7, read-out: Cytotoxicity against cancer cells IC50 MCF-7): 0.191 ± 0.004 µM
IL-6R ± SE ([2]; HepG-2, at IC50 concentrations, control 44.10): 24.59 ± 0.95 ng/L
IL-6R protein level ([2]; HepG-2, control 44.10%): 24.59 ng/L
IL-6 ±SE ([2]; raw data, HepG2, control 44.10): 11.87 ng/L
Activity % ([3]; HepG2): 11.673%
Inhibition % ([3]; HepG2): 88.327%
Activity % ([3]; K-562): 21.332%
Inhibition % ([3]; K-562): 78.668%
Activity % ([3]; MCF7): 19.260%
Inhibition % ([3]; MCF7): 80.740%
viability at 0.195 µmol ([4]; K-562, 0.195 umol): 82.7%
cytotoxicity at 0.195 µmol ([4]; K-562, 0.195 umol, read-out: Toxicity %): 17.3%
viability at 0.391 µmol ([4]; K-562, 0.391 umol): 55.2%
cytotoxicity at 0.391 µmol ([4]; K-562, 0.391 umol, read-out: Toxicity %): 44.8%
viability at 0.781 µmol ([4]; K-562, 0.781 umol): 27.4%
cytotoxicity at 0.781 µmol ([4]; K-562, 0.781 umol, read-out: Toxicity %): 72.6%
viability at 1.563 µmol ([4]; K-562, 1.563 umol): 16.4%
cytotoxicity at 1.563 µmol ([4]; K-562, 1.563 umol, read-out: Toxicity %): 83.6%
viability at 3.125 µmol ([4]; K-562, 3.125 umol): 11.1%
cytotoxicity at 3.125 µmol ([4]; K-562, 3.125 umol, read-out: Toxicity %): 88.9%
viability at 6.25 µmol ([4]; K-562, 6.25 umol): 8.54%
cytotoxicity at 6.25 µmol ([4]; K-562, 6.25 umol, read-out: Toxicity %): 91.5%
viability at 12.5 µmol ([4]; K-562, 12.5 umol): 7.8%
cytotoxicity at 12.5 µmol ([4]; K-562, 12.5 umol, read-out: Toxicity %): 92.2%
viability at 25 µmol ([4]; K-562, 25 umol): 6.69%
cytotoxicity at 25 µmol ([4]; K-562, 25 umol, read-out: Toxicity %): 93.3%
IC50 ([4]; MTT, K-562, read-out: Cytotoxicity against cancer cells IC50 K-562): 0.4642 ± 0.003 µM
Caspase-3 ± SE [5]: 1.10 ± 0.046 ng/mL
Caspase-3 ± SE ([5]; listed as R3): 1.10 ng/mL
caspase-3 expression level, fold increase ([5]; HepG-2, vs control cells): 2.40 fold
TNF-alpha ±SE ([6]; HepG-2, at IC50 concentrations): 23.47 ± 0.56 ng/L
TNF-alpha ±SE ([6]; raw data, HepG2): 16.86 ng/L
Activity % ([7]; HepG2): 16.278%
Inhibition % ([7]; HepG2): 83.722%
Activity % ([7]; K-562): 17.305%
Inhibition % ([7]; K-562): 82.695%
Activity % ([7]; MCF7): 18.736%
Inhibition % ([7]; MCF7): 81.264%
Caspase-9 ± SE [8]: 83.31 ± 1.28 ng/L
Caspase-9 ± SE ([8]; listed as R3): 83.31 ng/L
caspase-9 expression level, fold increase ([8]; HepG-2, vs control cells): 7.5 fold
viability at 0.195 µg/mL ([9]; HepG-2, 0.195 ug/ml): 52.9%
cytotoxicity at 0.195 µg/mL ([9]; HepG-2, 0.195 ug/ml, read-out: Toxicity %): 47.1%
viability at 0.391 µg/mL ([9]; HepG-2, 0.391 ug/ml): 33.3%
cytotoxicity at 0.391 µg/mL ([9]; HepG-2, 0.391 ug/ml, read-out: Toxicity %): 66.7%
viability at 0.781 µg/mL ([9]; HepG-2, 0.781 ug/ml): 27.5%
cytotoxicity at 0.781 µg/mL ([9]; HepG-2, 0.781 ug/ml, read-out: Toxicity %): 72.5%
viability at 1.563 µg/mL ([9]; HepG-2, 1.563 ug/ml): 13.7%
cytotoxicity at 1.563 µg/mL ([9]; HepG-2, 1.563 ug/ml, read-out: Toxicity %): 86.3%
viability at 3.125 µg/mL ([9]; HepG-2, 3.125 ug/ml): 9.67%
cytotoxicity at 3.125 µg/mL ([9]; HepG-2, 3.125 ug/ml, read-out: Toxicity %): 90.3%
viability at 6.25 µg/mL ([9]; HepG-2, 6.25 ug/ml): 8.39%
cytotoxicity at 6.25 µg/mL ([9]; HepG-2, 6.25 ug/ml, read-out: Toxicity %): 91.6%
viability at 12.5 µg/mL ([9]; HepG-2, 12.5 ug/ml): 7.03%
cytotoxicity at 12.5 µg/mL ([9]; HepG-2, 12.5 ug/ml, read-out: Toxicity %): 93%
viability at 25 µg/mL ([9]; HepG-2, 25 ug/ml): 5.68%
cytotoxicity at 25 µg/mL ([9]; HepG-2, 25 ug/ml, read-out: Toxicity %): 94.3%
IC50 ([9]; MTT, HepG-2, read-out: Cytotoxicity against cancer cells IC50 HepG-2): 0.2242 ± 0.0017 µM

Reference: paper PMC12377202, “Design, synthesis, and cytotoxic evaluation of quinazoline-based derivatives as VEGER-2 inhibitors: comparative study against EGFR kinase activity, induction of apoptosis, and molecular docking study” (RSC Advances, 2025)
